# From patent US12274830B2, “Nitric oxide inhalation therapy for infants with bronchiolitis” (BEYOND AIR LTD, priority 2015, dated 2025)
# “Also recorded” adds a separate entry of the source.
# What was measured:
# [1] = previous in vitro and animal studies; cited from earlier work
# [2] = test system: Klebsiella sp. #1; conditions: 200 ppm gNO; cited from earlier work
# [3] = test system: Mycobacterium smegmatis; conditions: 200 ppm gNO; cited from earlier work
# [4] = test system: S. maltophilia; conditions: 200 ppm gNO; cited from earlier work
# [5] = test system: healthy individuals; conditions: 160 ppm NO for 30 minutes, 5 times daily, 5 consecutive days; cited from earlier work
# [6] = test system: influenza virions or infected cell (MDCK); conditions: intermittent (30 minutes every 4 hours) 160 ppm exogenous gaseous NO; MDCK cell model; cited from earlier work
# [7] = test system: Klebsiella sp.#2; conditions: 200 ppm gNO; cited from earlier work
# [8] = test system: Klebsiella sp. #3; conditions: 200 ppm gNO; cited from earlier work
# [9] = test system: P. aeruginosa (ATCC 27853); conditions: 200 ppm gNO; cited from earlier work
# [10] = test system: Enterobacter sp.; conditions: 200 ppm gNO; cited from earlier work
# [11] = test system: bacteria at 10E5 CFU/ml isolated from patients; conditions: 200 ppm gNO, cited from earlier work
# [12] = test system: S. aureus (ATCC 25923); conditions: 200 ppm gNO; cited from earlier work
# [13] = test system: MRSA; conditions: 200 ppm gNO; cited from earlier work
# [14] = test system: Acinetobacter sp.; conditions: 200 ppm gNO; cited from earlier work
# [15] = test system: S. aureus (Clinical); conditions: 200 ppm gNO; cited from earlier work
# [16] = test system: Group B Streptococci; conditions: 200 ppm gNO; cited from earlier work
# [17] = test system: infants with acute bronchiolitis; assay: Efficacy (LOS, time to SpO2 >=92%, time to clinical score <=5) of intermittent inhalations of 160 ppm NO in infants with acute bronchiolitis; format: in vivo, human
# Experimental: The study was a randomized, prospective, single center, double blind study of 2-11 month old hospitalized infants with acute bronchiolitis (FIG. 1).
# Subjects were screened within 4 hours of admission and randomized (1:1) to receive intermittent inhalations of 160 ppm NO along with standard treatment (NO group) or intermittent inhalations of 02/air mixture and standard treatment (control group), for a maximum of 25 inhalations.
# Secondary Outcome: Efficacy parameters: LOS calculated in hours, starting from first inhalation until: 1) Oxygen saturation (SpO2) ≥92% in room-air; 2) Clinical score ≤5 (15, 16) and; 3) blinded physician decision of “ready for discharge”.
# The secondary outcome were efficacy measures, including LOS, time to achieve ≥92% SaO2, and time to achieve a clinical score of ≤5. LOS in hours was defined as the time between first treatment until the time the infant was “ready for discharge”, defined as 1. Room air saturation of ≥92%; 2. Clinical severity symptom score (Table E1) of ≤5; 3. A clinical decision made by a blinded pediatrician.
# A severity symptom score, was used to determine the severity of each infant (Table E1). The score was comprised of four components: Respiratory rate, use of accessory muscles, wheezes and crackles on auscultation, and % room-air oxygen saturation (SpO2). Each component is given 0 to 3 points, with a total possible score of 12. Infants with a score of <6 were determined as mild and were not included in the study, while infants with a score of >10 were determined as very severe and were also excluded.
# Each patient was given 5 inhalations a day of NO (treatment group) or oxygen (control group), along with the standard supportive treatment, for a maximum of 25 inhalations (based on phase I safety data). Each participant was examined and evaluated using the severity symptom score by a blinded pediatricians every […] (9 am and 3 pm). When the room-air SpO2 reached 92%, and the score was ≤5, and the patient was assessed as “ready for discharge”, the treatment was discontinued.
# Post-hoc subgroup analyses of subjects with a LOS ≤24 hours and >24 hours were also conducted for the key post-hoc secondary endpoints, for the following reasons: based on preclinical studies, the anti-microbial treatment effect of NO is expected to take approximately 2.5 hours of exposure (i.e., 24 hours treatment). A third of the subjects were discharged after <24 hours in hospital. A longer LOS is expected to correlate with a higher disease severity, and therefore any treatment effect should be more evident in the subgroup LOS >24 hours.
# LOS was calculated in hours from the first inhalation treatment to “ready for discharge” defined as physician decision to discharge.
# Time to achieve room-air SpO2 of ≥92% (improvement in oxygenation) leading to discharge was calculated from first treatment to the first time of room-air SpO2 of ≥92% sustained until discharge. Time to clinical score of ≤5 was calculated from the first inhalation to the first time the subject reached a clinical score of ≤5.
# The following statistical tests were used in the analysis of the data presented in this study: 1. The Paired T-Test was applied for testing the statistical significance of the changes from baseline for quantitative variables within each study group; 2. The two-sample T-test or Non-parametric Wilcoxon Rank Sum test or median tests were used as appropriate for analyzing differences between the study groups in quantitative parameters; 3. The Chi-square test was applied for testing the statistical significance of the differences in frequency of categorical variables between the study groups; 4. Survival analysis using a Kaplan-Meier survival function curve was applied for testing the statistical significance of the difference between the study groups in the following endpoints: LOS, from first inhalation to ready to discharge, time to achieve 92% saturation leading to discharge, and time to achieve clinical score ≤5. […]
# [18] = average of the 13 bacteria above the line
structure (smiles),measurement,setting,value
"[N]=O [NO, nitric oxide]",NO exposure needed before an anti-microbial effect was seen,[1],at least 2.5 hours
same,+2.5 Log10,[2],3.5 hours
same,LD100,[2],6 h
same,Latent Period,[2],3 h
same,+2.5 Log10,[3],9.2 hours
same,LD100,[3],10 h
same,Latent Period,[3],7 h
same,+2.5 Log10,[4],2.8 hours
same,LD100,[4],4 h
same,Latent Period,[4],2 h
same,Safety and tolerability in healthy individuals,[5],safe and well tolerated
same,Effect on influenza viral replication and infectivity,[6],"reduced not just viral replication, but also its infectivity"
same,+2.5 Log10,[7],4.1 hours
same,LD100,[7],5 h
same,Latent Period,[7],2 h
same,+2.5 Log10,[8],5.1 hours
same,LD100,[8],6 h
same,Latent Period,[8],3 h
same,+2.5 Log10,[9],2.1 hours
same,LD100,[9],3 h
same,Latent Period,[9],1 h
same,+2.5 Log10,[10],5.3 hours
same,LD100,[10],6 h
same,Latent Period,[10],4 h
same,Reduction in CFU/ml for each gNO-exposed organism,[11]; 10E5 CFU/ml,4-6 Log10 units
same,"+2.5 Log10, Average",[11]; [18],3.82 hours
same,"LD100, Average",[11]; [18],4.77 h
same,"Latent Period, Average",[11]; [18],2.77 h
same,+2.5 Log10,[12],3.3 hours
same,LD100,[12],4 h
same,Latent Period,[12],3 h
same,+2.5 Log10,[13],4.2 hours
same,LD100,[13],5 h
same,Latent Period,[13],3 h
same,+2.5 Log10,[14],5 hours
same,LD100,[14],6 h
same,Latent Period,[14],4 h
same,+2.5 Log10,[15],3.7 hours
same,LD100,[15],4 h
same,Latent Period,[15],3 h
same,+2.5 Log10,[16],1.5 hours
same,LD100,[16],2 h
same,Latent Period,[16],1 h
same,Time to first 92% O2 saturation sustained to discharge,"[17]; ITT (N=42), NO group, P=0.517 vs control",35.50 ± 33.73 h
same,Mean time to reach clinical score of ≤5,"[17]; ITT (N=43), NO group, P=0.621 vs control",32.83 ± 30.61 h
same,Median LOS,"[17]; ITT including the 16 infants discharged within <24 hours, P=0.65 vs control",40 h
same,"Length of stay (LOS), mean±SD","[17]; ITT, 43 subjects, NO group, P=0.86 vs control",43.3 ± 32.95 h
same,"Hazard ratio (HR), time to first sustained 92% O2 saturation","[17]; Kaplan Meier, PP, LOS >24 hours, 95% CI=0.139, 0.921, P=0.028",0.358
same,"Hazard ratio (HR), time to clinical score ≤5","[17]; Kaplan-Meier, ITT, LOS >24 hours, 95% CI: 0.161, 0.949, log rank P=0.033",0.391
same,"Median LOS, post-hoc subgroup","[17]; post-hoc ITT, LOS >24 hours subgroup, P=0.014 vs control",41.92 h
same,"Clinical benefit of NO versus standard treatment (LOS, time to SpO2 ≥92%, time to clinical score ≤5)","[17]; post-hoc, subgroup LOS >24 hours",statistically significant clinical benefits; also recorded: statistically significant in favor of the NO group; also recorded: statistically significant treatment benefit
